Measurements: BigSolDB 2.1

CCOc1ncc(C)c2c1[C@H](c1ccc(C#N)cc1OC)C(C(N)=O)=C(C)N2
solubility (mole fraction)
Settings | in 2-butanone | in acetone | in acetonitrile | in dichloromethane | in ethanol | in ethyl acetate | in isopropanol | in isopropyl acetate | in methanol | in methyl acetate
273.15 K | 0.0031 | 0.00376 | 0.000808 | 0.0047 | 0.000949 | 0.00114 | 0.000229 | 0.000378 | 0.004 | 0.00127
278.15 K | 0.00347 | 0.00407 | 0.000973 | 0.00506 | 0.00115 | 0.00128 | 0.000333 | 0.000459 | 0.00422 | 0.00136
283.15 K | 0.00376 | 0.00449 | 0.00111 | 0.00565 | 0.00135 | 0.00143 | 0.000443 | 0.000563 | 0.0045 | 0.0015
288.15 K | 0.0041 | 0.00508 | 0.00129 | 0.00622 | 0.00156 | 0.00157 | 0.000554 | 0.000647 | 0.00484 | 0.00166
293.15 K | 0.0044 | 0.00545 | 0.00144 | 0.00669 | 0.00182 | 0.0017 | 0.000682 | 0.000728 | 0.00515 | 0.00182
298.15 K | 0.00468 | 0.00577 | 0.00166 | 0.00724 | 0.00206 | 0.00182 | 0.000822 | 0.000809 | 0.00553 | 0.00197
303.15 K | 0.00508 | 0.00614 | 0.0019 | 0.00766 | 0.00233 | 0.00195 | 0.000984 | 0.00089 | 0.00599 | 0.00211
308.15 K | 0.00542 | 0.00665 | 0.00217 | 0.00814 | 0.00261 | 0.00211 | 0.00122 | 0.000979 | 0.00638 | 0.00229
313.15 K | 0.00587 | 0.00725 | 0.00247 | – | 0.00299 | 0.00225 | 0.00152 | 0.00113 | 0.00684 | 0.00248
